Consider one compound from US6992068B2 (Gifu Shellac Mfg., Co., Ltd., priority 2000, dated 2006).

The test system of data set [1] is glutamic-oxaloacetic transaminase activity (GOT). The experiment in a line: Experiment 1: blood GOT activity in mice with Propionivacterium acnes / lipopolysaccharide induced hepatopathy. To be noted: groups B (Brazilian licorice extract, 25 mg), D (Chinese licorice extract, 25 mg), F (prednisolone acetate 5 mg); i.p. four times. Type of data set: in vivo. The protocol: (§1) The following experiment was performed to examine the effects of inhibiting cytokine production and lowering GOT activity of the extracts obtained in Example 1 and Comparative Example 1. Male mice of ddy system (Japan SLC, Inc.), each of which weighs 18-20 g, are prepared for the experiment. […] 5 mg of Propionivacterium acnes suspension was injected into the vein of the aforementioned mice respectively, to cause hepatopathy. […] 10 μg of lipopolysaccharide was injected into the vein of the mice in all groups respectively, thirty minutes after the fourth injection in step II (as to the mice in group A, the injection was performed at the same timing as the mice in the other groups). Then, two hours later, blood was taken from all the mice to obtain serum. There was no visible change in weight and food and water consumption of the mice. From the serum obtained in step III, glutamic-oxaloacetic transaminase activity (GOT) was measured. For the measurement, a commercially available measurement kit which adopts Enzyme Linked immuno-Sorbent Assay using enzyme labeling antibody was used. […] Units.

Data set [2] can be described thus: Experiment 4: weight changes of rats in autoimmune encephalomyelitis model. Type of data set: in vivo. To be noted: 5 mg/Kg of body weight per injection. The procedure: The immunosuppressive effect of the BL. 1, BL. 2 and […].
The manner of experiment was basically the same as the aforementioned Experiment 3.
However, the number of groups of rats were reduced to five, one of which included the rats to which the BL. 1 was injected, another of which included the rats to which the BL. 2 was injected, another of which included the rats to which the BL. 3 was injected, another of which included the rats to which prednisolone acetate was injected, and another of which included the rats without injection.
The dose per one injection of BL. 1, BL. 2 and BL. 3 was 6 mg/head and in the form of physiological saline.
The dose per one injection of prednisolone acetate was 5 mg/Kg of body weight and in the form of physiological saline.

In the next data set the test system is interleukin-6 (IL-6). The data set is described as follows: Experiment 1: blood cytokine (IL-6) in mice with Propionivacterium acnes / lipopolysaccharide induced hepatopathy. The class given is in vivo. To be noted: groups B (Brazilian licorice extract of Example 1, 25 mg), D (Chinese licorice extract of Comparative Example 1, 25 mg), F (prednisolone acetate 5 mg); i.p. four times; serum 2 h after LPS. The procedure: as §1, with “measurement of interleukin-6 (IL-6), which is a kind of cytokine,” for “glutamic-oxaloacetic transaminase activity (GOT)”, “performed.” for “measured.”, “Fluorescence” for “Enzyme”, “fluorescence” for “enzyme”, “The measured values in Table 1 show IL-6 levels (unit: picogram) per 1 ml serum.” for “Units.”

For data set [3], the system named is collagen induction arthritis model. The experiment in a line: Experiment 2: collagen induction arthritis model, foot pad swelling (foot pad volume). Type of data set: in vivo, mice. To be noted: 5 mg/head i.p. every other day. The protocol: These evaluations were performed in 0, 3rd, 4th, 5th, 6th, 7th and 8th weeks after the first immunity. The values in FIG. 4 are relative values based on the initial hind foot pad volumes.

For data set [4] the following is noted: extracts of Example 2 / Comparative Example 2 6 and 12.5 mg/head, prednisolone acetate 5 mg/Kg, i.p. every other day, eight weeks.
Method: DBJ/1J mice were used in the experiment. The mice are divided into six groups, namely, G, H, I, J, K and L, each consisting of six mice.
50 μl (200 μg/head) of the emulsion was then injected to the back neck skin of each of the mice under ether (first immunity).
Three weeks after the first immunity, 50 μl (200 μg/head) of the emulsion was injected to the tail head skin of each of the mice (second immunity).
Prednisolone acetate (produced by Shionogi & Co., Ltd.) which is a control drug was suspended by physiological saline so that the dosage is 5 mg/Kg of body weight, and the obtained suspended solution was injected into the abdominal cavity of each mouse in group L by 1 ml every other day after the first immunity.
The above injections were performed all through the test period (for eight weeks after the first immunity).
The weight of the mice in the respective groups were measured every day after the first immunity and the average weight per each of the groups was calculated.
Data set [5] concerns collagen induction arthritis model. The data set is described as follows: Experiment 2: collagen induction arthritis model, arthritis index. Type of data set: in vivo, mice. To be noted: 5 mg/head i.p. every other day. The procedure: Clinical symptoms of arthritis of mice in the respective groups were evaluated by one and the same observer using 6 rankings from zero to five (the larger the value is, the worse the symptom is), and the averages per the respective groups were calculated. These evaluations were performed in 0, 3rd, 4th, 5th, 6th, 7th and 8th week after the first immunity The results were shown in FIG. 3 and Table 3.

The test system of data set [6] is autoimmune encephalomyelitis model. The data set is described as follows: Experiment 3: autoimmune encephalomyelitis model, clinical score. To be noted: group R, 5 mg/Kg of body weight i.p. once a day for 12 days. Type of data set: in vivo, rats.

`CC(=O)OCC(=O)[C@@]1(O)CC[C@H]2[C@@H]3CCC4=CC(=O)C=C[C@]4(C)[C@H]3[C@@H](O)C[C@@]21C` [prednisolone acetate]: in data set [1], the “blood GOT activity level, average of eight mice” value is 350.705 Kermen Units. The “weight increase compared to the other groups (FIG. 6, words)” value in data set [2] is listed as “had the least increase”. Moreover, the “blood IL-6 level, average of eight mice” value in the data set with interleukin-6 (IL-6) was 26473 picogram per 1 ml serum. For the same compound, the “hind foot pad volume, group average, relative to initial volume” value was 99.2 in data set [3] (3rd week); 95.2 in data set [3] (4th week); 101.1 in data set [3] (5th week); 102.4 in data set [3] (6th week); 95.5 in data set [3] (7th week); 97.9 in data set [3] (8th week). Besides, the “hind foot pad volume, group average, relative to initial volume” value in data set [3] (Primary immunity) came out at 100. Besides, the “average weight of mice (FIG. 2)” value in data set [4] was “reduced significantly”. Moreover, the “arthritis index (ranking 0-5), group average” value stood at 0 in data set [5] (3rd week); 0 in data set [5] (4th week); 0 in data set [5] (5th week); 0 in data set [5] (6th week); 0.125 in data set [5] (7th week); 0.125 in data set [5] (8th week). Also, the “arthritis index (ranking 0-5), group average” value in data set [5] (Primary immunity) is listed as 0. In addition, the “time at which a few rats developed encephalomyelitis” value in data set [6] is recorded as 8-11 days after the injection of emulsion.
